Laboratory results reported in the supplement of paper PMC11208160.

test: recombinant barcode read abundance after kanamycin selection (control-corrected) (log10(CPM+1)); higher = more efficient recombination; sequences stand for … in AGTGCAGAGAAAATCGGCCAGTTTTCTCTGCCTGCAGTCCGCATGCCGT…AGATTTATGCAGCGGACTGCCTTTCTCCCAAAGTGATAAACCGGACAGTATCATGGACCGGTTTTCCCGGTAATCCGTATTTGCAAGGTTGGTTTCACT; site = the 11-nt target
Outline: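 Two replicates per condition were plated: chloramphenicol/ampicillin LB agar for the control, and chloramphenicol/ampicillin/kanamycin with 0.1 mM IPTG for selection. The pooled E. coli screen behind them paired targets with IS621 bridge RNA target-binding loops. Recombination efficiency is expressed from averaged, control-corrected barcode counts per million at recombinant junctions, as log10(CPM+1).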
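Note: IS621 recombinase and bridge RNA in Escherichia coli cells.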

| Sequence | recombinant barcode read abundance (log10) |
| --- | --- |
| CGTATGTCTTGGGTTCTAACCTGTTGCCT (site AGTATGTCTAG) | 0.0814 |
| CGTATGTCTTGGGTTCTAACCTGTTGCCT (site CGTATGTCTAG) | 0.684 |
| CGTATGTCTTGGGTTCTAACCTGTTGCCT (site GGTATGTCTAG) | 0.0736 |
| CGTATGTCTTGGGTTCTAACCTGTTGCCT (site TGTATGTCTAG) | 0.189 |
| CGTCAACCTTGGGTTCTAACCTGTTGCGT (site CGTAAACCTAC) | 0.186 |
| CGTCAACCTTGGGTTCTAACCTGTTGCGT (site CGTCAACCTAC) | 0.205 |
| CGTCAACCTTGGGTTCTAACCTGTTGCGT (site CGTGAACCTAC) | 0.0619 |
| CGTCAACCTTGGGTTCTAACCTGTTGCGT (site CGTTAACCTAC) | 0.242 |
| CGTCATCCTTGGGTTCTAACCTGTTGCCT (site CGTCAACCTAG) | 0.0954 |
| CGTCATCCTTGGGTTCTAACCTGTTGCCT (site CGTCACCCTAG) | 0.0927 |
| CGTCATCCTTGGGTTCTAACCTGTTGCCT (site CGTCAGCCTAG) | 0.112 |
| CGTCATCCTTGGGTTCTAACCTGTTGCCT (site CGTCATCCTAG) | 0.0294 |
| CGTCCACCTTGGGTTCTAACCTGTTGCCT (site AGTCCACCTAG) | 0.198 |
| CGTCCACCTTGGGTTCTAACCTGTTGCCT (site CGTCCACCTAG) | 0.0544 |
| CGTCCACCTTGGGTTCTAACCTGTTGCCT (site GGTCCACCTAG) | 0.1 |
| CGTCCACCTTGGGTTCTAACCTGTTGCCT (site TGTCCACCTAG) | 0.245 |
| CGTCCTGCTTGGGTTCTAACCTGTTGCCT (site AGTCCTGCTAG) | 0 |
| CGTCCTGCTTGGGTTCTAACCTGTTGCCT (site CGTCCTGCTAG) | 0.488 |
| CGTCCTGCTTGGGTTCTAACCTGTTGCCT (site GGTCCTGCTAG) | 0 |
| CGTCCTGCTTGGGTTCTAACCTGTTGCCT (site TGTCCTGCTAG) | 0.0535 |
| CGTCCTTCTTGGGTTCTAACCTGTTGCCT (site AGTCCTTCTAT) | 0.351 |
| CGTCCTTCTTGGGTTCTAACCTGTTGCCT (site CGTCCTTCTAG) | 0.0421 |

| Sequence | recombinant barcode read abundance (log10) |
| --- | --- |
| CGTCGACCTTGGGTTCTAACCTGTTGCCT (site AGTCGACCTAG) | 0.092 |
| CGTCGACCTTGGGTTCTAACCTGTTGCCT (site CGTCGACCTAG) | 0.0617 |
| CGTCGACCTTGGGTTCTAACCTGTTGCCT (site GGTCGACCTAG) | 0.227 |
| CGTCGACCTTGGGTTCTAACCTGTTGCCT (site TGTCGACCTAG) | 0.194 |
| CGTCTGACTTGGGTTCTAACCTGTTGCCA (site CGACTGACTAG) | 0.158 |
| CGTCTGACTTGGGTTCTAACCTGTTGCCA (site CGTCTGACTTG) | 0.241 |
| CGTGAAGCTTGGGTTCTAACCTGTTGCCT (site CGTATAGCTAG) | 0.183 |
| CGTGAAGCTTGGGTTCTAACCTGTTGCCT (site CGTGAAGCTAG) | 0.795 |
| CGTGCGACTTGGGTTCTAACCTGTTGCAT (site CGTACGACTAT) | 0.0517 |
| CGTGCGACTTGGGTTCTAACCTGTTGCAT (site CGTCCGACTAT) | 0.0641 |
| CGTGCGACTTGGGTTCTAACCTGTTGCAT (site CGTGCGACTAT) | 0.109 |
| CGTGCGACTTGGGTTCTAACCTGTTGCAT (site CGTTCGACTAT) | 0.174 |
| CGTGGGGCTTGGGTTCTAACCTGTTGCCT (site CGTATGGCTAG) | 0.075 |
| CGTGGGGCTTGGGTTCTAACCTGTTGCCT (site CGTGGGGCTAG) | 0.156 |
| CGTTCTCCTTGGGTTCTAACCTGTTGCTA (site CGTTCTCCTTA) | 0.637 |
| CGTTCTCCTTGGGTTCTAACCTGTTGCTA (site GCAAGGTCTAT) | 0.0644 |
| CTAAAGCCTTGGGTTCTAACCTGTTGCCT (site CTAAAGCCTAG) | 1.25 |
| CTAAAGCCTTGGGTTCTAACCTGTTGCCT (site CTAAGGCCTAG) | 0.2 |
| CTAAATACTTGGGTTCTAACCTGTTGCCG (site CTAAATACTCG) | 0.154 |
| CTAAATACTTGGGTTCTAACCTGTTGCCG (site CTAAGCACTCG) | 0.188 |
| CTAAATCCTTGGGTTCTAACCTGTTGCAT (site CTAAATCCTAT) | 0.963 |
| CTAAATCCTTGGGTTCTAACCTGTTGCAT (site CTAACTCCTAT) | 0.0807 |

| Sequence | recombinant barcode read abundance (log10) |
| --- | --- |
| CTAAATCCTTGGGTTCTAACCTGTTGCAT (site CTAAGTCCTAT) | 0.0712 |
| CTAAATCCTTGGGTTCTAACCTGTTGCAT (site CTAATTCCTAT) | 0.232 |
| CTAACCTCTTGGGTTCTAACCTGTTGCTA (site CTAACCTCTAA) | 0.0338 |
| CTAACCTCTTGGGTTCTAACCTGTTGCTA (site CTAACCTCTCA) | 0.0433 |
| CTAACCTCTTGGGTTCTAACCTGTTGCTA (site CTAACCTCTGA) | 1.01 |
| CTAACCTCTTGGGTTCTAACCTGTTGCTA (site CTAACCTCTTA) | 1.42 |
| CTAACGACTTGGGTTCTAACCTGTTGCGG (site CTAACGACTCC) | 2.47 |
| CTAACGACTTGGGTTCTAACCTGTTGCGG (site CTAGCGACTCC) | 0.158 |
| CTAACTCCTTGGGTTCTAACCTGTTGCAT (site CTAAATCCTAT) | 0.0865 |
| CTAACTCCTTGGGTTCTAACCTGTTGCAT (site CTAACTCCTAT) | 1.1 |
| CTAACTCCTTGGGTTCTAACCTGTTGCAT (site CTAAGTCCTAT) | 0.0705 |
| CTAACTCCTTGGGTTCTAACCTGTTGCAT (site CTAATTCCTAT) | 0.0675 |
| CTAAGAGCTTGGGTTCTAACCTGTTGCCG (site CTAAGAGCTCG) | 1.65 |
| CTAAGAGCTTGGGTTCTAACCTGTTGCCG (site CTAAGAGCTCT) | 0.504 |
| CTAAGCCCTTGGGTTCTAACCTGTTGCGG (site CTAAGCCCTCC) | 1.99 |
| CTAAGCCCTTGGGTTCTAACCTGTTGCGG (site CTGAGCCCTCG) | 0.0837 |
| CTAAGCTCTTGGGTTCTAACCTGTTGCTG (site CTAAGCTCTAA) | 0.259 |
| CTAAGCTCTTGGGTTCTAACCTGTTGCTG (site CTAAGCTCTCA) | 1.25 |
| CTAAGCTCTTGGGTTCTAACCTGTTGCTG (site CTAAGCTCTGA) | 0.23 |
| CTAAGCTCTTGGGTTCTAACCTGTTGCTG (site CTAAGCTCTTA) | 0.349 |
| CTAAGGTCTTGGGTTCTAACCTGTTGCAT (site CTAAGGTCTAA) | 0.688 |
| CTAAGGTCTTGGGTTCTAACCTGTTGCAT (site CTAAGGTCTAC) | 0.176 |

| Sequence | recombinant barcode read abundance (log10) |
| --- | --- |
| CTAAGGTCTTGGGTTCTAACCTGTTGCAT (site CTAAGGTCTAG) | 0.214 |
| CTAAGGTCTTGGGTTCTAACCTGTTGCAT (site CTAAGGTCTAT) | 2.33 |
| CTAAGTCCTTGGGTTCTAACCTGTTGCAT (site CTAAATCCTAT) | 0.809 |
| CTAAGTCCTTGGGTTCTAACCTGTTGCAT (site CTAACTCCTAT) | 0.0677 |
| CTAAGTCCTTGGGTTCTAACCTGTTGCAT (site CTAAGTCCTAT) | 1.34 |
| CTAAGTCCTTGGGTTCTAACCTGTTGCAT (site CTAATTCCTAT) | 0.116 |
| CTAATAGCTTGGGTTCTAACCTGTTGCCA (site AGTCCGTCTAT) | 0.186 |
| CTAATAGCTTGGGTTCTAACCTGTTGCCA (site CTAATAGCTTG) | 0.262 |
| CTAATGACTTGGGTTCTAACCTGTTGCAC (site CTAATGACTGT) | 1.43 |
| CTAATGACTTGGGTTCTAACCTGTTGCAC (site CTAATGCCTAT) | 0.227 |
| CTAATGCCTTGGGTTCTAACCTGTTGCAT (site CTAATGACTGT) | 0.0624 |
| CTAATGCCTTGGGTTCTAACCTGTTGCAT (site CTAATGCCTAT) | 0.175 |
| CTAATTACTTGGGTTCTAACCTGTTGCAC (site CTAATTACTGT) | 0.249 |
| CTAATTACTTGGGTTCTAACCTGTTGCAC (site GTAACTACTGT) | 0.114 |
| CTAATTACTTGGGTTCTAACCTGTTGCCT (site CTAATTACTAG) | 0.946 |
| CTAATTACTTGGGTTCTAACCTGTTGCCT (site CTACTTACTAG) | 0.0931 |
| CTAATTACTTGGGTTCTAACCTGTTGCCT (site CTAGTTACTAG) | 0.159 |
| CTAATTACTTGGGTTCTAACCTGTTGCCT (site CTATTTACTAG) | 0.196 |
| CTAATTCCTTGGGTTCTAACCTGTTGCAT (site CTAAATCCTAT) | 0.0881 |
| CTAATTCCTTGGGTTCTAACCTGTTGCAT (site CTAACTCCTAT) | 0.0994 |
